One assay concerns VEGF165 mRNA. Kind of assay: Northern blot hybridisation, VEGF165 mRNA in non-pregnant cervical tissue explants. The following applies: 48 hours. In kind it is cell-based, human. The method, then:
Human uterine non-pregnant cervix tissue was obtained from non-malignant hysterectomies. The samples were maintained in phenol red free culture media DMEM supplemented with penicillin (1%), streptomycin (1%) and L-Glutamine (1%) and transferred to the laboratory on ice. The biopsies were washed in ice-cold saline solution then cut into small sections 1 to 2 mm and incubated in the above culture medium in 60×15 mm petri dishes at 37° C. in 5% CO2/95% air. Progesterone (P2) was added to the culture medium at concentrations of 10^−4, 10^−6 and 10^−8 M. 17−β Estradiol (E2) was added to the culture medium either alone at concentrations of 10^−6, 10^−7 and 10^−8 M or for 2 hours to prime the cervical explants at a concentration of 10^−7 M, followed by addition of Progesterone (P2) at concentrations ranging from 10^31 4 to 10^−8 M. The effect of VEGF165 (1, 10, 50, 100, 200 ng/ml) and PAF (10^−6−10^−10 M) in the non-pregnant cervical explants was also investigated. This culture system was chosen because it allows study of the intact tissues in their own matrix and avoids the potentially artefact-producing procedures of cell dispersion and culture. In this system, the cells remain intact for at least 5 days. RNA (40 μg/lane) was loaded onto a 1.2% agarose/formaldehyde gel, electrophoretically separated, transferred onto Hybond nylon membranes, and immobilised by exposure to U.V. light for 5 min. Membranes were prehybridized at 42° C. for 8 hours in a solution containing 50% formamide, 5×SSC, 5×Denhardt's solution, 0.5% SDS and salmon sperm DNA at 150 μg/ml. The VEGF165 cDNA was labelled with [α-^32P]dCTP by random-primer extension. 18s oligonucleotide probe labelled by T4 polynucleotide kinase with […] was used to determine the relative amount of RNA loaded in each lane by rehybridizing the blots that have previously been probed with VEGF165. Hybridisation was done under the same conditions with the labelled probe for 18 hours at 42° C. […]

The next assay concerns VEGF protein expression. As to the kind of experiment: Western blot analysis, VEGF protein expression in non-pregnant cervical explants and culture medium. In kind it is cell-based, human. The method, then:
Human uterine non-pregnant cervix tissue was obtained from non-malignant hysterectomies. The samples were maintained in phenol red free culture media DMEM supplemented with penicillin (1%), streptomycin (1%) and L-Glutamine (1%) and transferred to the laboratory on ice. The biopsies were washed in ice-cold saline solution then cut into small sections 1 to 2 mm and incubated in the above culture medium in 60×15 mm petri dishes at 37° C. in 5% CO2/95% air. Progesterone (P2) was added to the culture medium at concentrations of 10^−4, 10^−6 and 10^−8 M. 17−β Estradiol (E2) was added to the culture medium either alone at concentrations of 10^−6, […] M, followed by addition of Progesterone (P2) at concentrations ranging from 10^31 4 to 10^−8 M. The effect of VEGF165 (1, 10, 50, 100, 200 ng/ml) and PAF (10^−6−10^−10 M) in the non-pregnant cervical explants was also investigated. This culture system was chosen because it allows study of the intact tissues in their own matrix and avoids the potentially artefact-producing procedures of cell dispersion and culture.
Cervical tissue, after having been stimulated with VEGF165 or PAF for 24 hours or with the ovarian steroid hormones, 17β-estradiol (E2) and progesterone (P2), for 48 hours, was washed twice in ice-cold PBS and homogenised in ice-cold, high salt lysis buffer (containing 0.4 M KCl, 20 mM HEPES, 1 mM DTT, 20% glycerol, 0.5 mg/ml Bacitracin, 40 μg/ml PMSF, 5 μg/ml Peptastin, 5 μg/ml Leupeptin). Homogenates were centrifuged at 12,000 revolutions/min for 15 minutes and the supernatants containing extracted protein were collected. The culture medium used to incubate the tissue with or without E2, P2 or E2+P2 was also collected, centrifuged. To the supernatant, 3 volumes of ethanol were added and stored at −70° C. for at least 5 hours. Then, the culture medium/ethanol suspension was centrifuged at 10,000 rpm for 10 min and the pellet containing the protein was resuspended in lysis buffer. Total protein, extracted from both tissue and medium, was quantified with the Bio-Rad protein assay, and 500 ng of protein from each sample was diluted in loading buffer (containing 0.02 M Tris-HCl, 0.002 M EDTA, 2% SDS, 10% mercaptoethanol, 20% glycerol, bromophenol blue). Samples were subjected to electrophoresis in a 12% polyacrylamide gel with 5% stacking gel and transferred overnight at 36V onto a nitrocellulose membrane. The membrane was blocked at RT with 1% skimmed milk in Tris-buffered saline solution before incubation with an antiserum (diluted 1:500) directed against the rabbit VEGF165 at 4° C. After a 15 min. wash and 2×5 min. washes with Tris-buffered saline solution at room temperature (RT), the membrane was incubated in an anti-rabbit secondary Ab conjugated to alkaline phosphatase. In case of Western blotting experiments for Connexin-43, the membrane was blocked overnight at 4° C. in blocking buffer (1% BSA in 10 mM Tris pH 7.5, 100 mM NaCl, 0.1% Tween 20), before incubation with a monoclonal antibody directed against Connexin-43 again overnight at 4° C. After a 6×5 min. washes with Tris-buffered saline solution, the membrane was incubated in a mouse secondary Ab conjugated to alkaline phosphatase. A chemiluminescence system (ECL-Amersham) was used to visualise the presence of VEGF165, Connexin-43 or Flt-1 protein. This is a highly sensitive and quantitative assay for detecting proteins immobilised on membranes.
Cervical tissue explants in culture medium were exposed to various concentrations of the ovarian steroid hormones, 17β-estradiol (E2) and progesterone (P2), for 48 hours, followed by extraction of protein from the tissue as well as the culture medium.
A general note: In western blotting, separated proteins are transferred to a membrane and probed.

Assay [1] has as its system Connexin-43. Kind of assay: Western blot, Connexin-43 expression in non-pregnant cervical explants. In kind it is cell-based, human. The method, then: Human uterine non-pregnant cervix tissue was obtained from non-malignant hysterectomies. The samples were maintained in phenol red free culture media DMEM supplemented with penicillin (1%), streptomycin (1%) and L-Glutamine (1%) and transferred to the laboratory on ice. The biopsies were washed in ice-cold saline solution then cut into small sections 1 to 2 mm and incubated in the above culture medium in 60×15 mm petri dishes at 37° C. in 5% CO2/95% air. Progesterone (P2) was added to the culture medium at concentrations of 10^−4, 10^−6 and 10^−8 M. 17−β Estradiol (E2) was added to the culture medium either alone at concentrations of 10^−6, 10^−7 and 10^−8 M or for 2 hours to prime the cervical explants at a concentration of 10^−7 M, followed by addition of Progesterone (P2) at concentrations ranging from 10^31 4 to 10^−8 M. The effect of VEGF165 (1, 10, 50, 100, 200 ng/ml) and PAF (10^−6−10^−10 M) in the non-pregnant cervical explants was also investigated. This culture system was chosen because it allows study of the intact tissues in their own matrix and avoids the potentially artefact-producing procedures of cell dispersion and culture. In this system, the cells remain intact for at least 5 days.

Assay [2] relates to Connexin-43. The following applies: non-pregnant myometrial explants, FIG. 11A. The method, then: Cervical tissue, after having been stimulated with VEGF165 or PAF for 24 hours or with the ovarian steroid hormones, 17β-estradiol (E2) and progesterone (P2), for 48 hours, was washed twice in ice-cold PBS and homogenised in ice-cold, high salt lysis buffer (containing 0.4 M KCl, 20 mM HEPES, 1 mM DTT, 20% glycerol, 0.5 mg/ml Bacitracin, 40 μg/ml PMSF, 5 μg/ml Peptastin, 5 μg/ml Leupeptin). Homogenates were centrifuged at 12,000 revolutions/min for 15 minutes and the supernatants containing extracted protein were collected. The culture medium used to incubate the tissue with or without E2, P2 or E2+P2 was also collected, centrifuged. To the supernatant, 3 volumes of ethanol were added and stored at −70° C. for at least 5 hours. Then, the culture medium/ethanol suspension was centrifuged at 10,000 rpm for 10 min and the pellet containing the protein was resuspended in lysis buffer. Total protein, extracted from both tissue and medium, was quantified with the Bio-Rad protein assay, and 500 ng of protein from each sample was diluted in loading buffer (containing 0.02 M Tris-HCl, 0.002 M EDTA, 2% SDS, 10% mercaptoethanol, 20% glycerol, bromophenol blue). […] This is a highly sensitive and quantitative assay for detecting proteins immobilised on membranes.

The next assay has as its system rat cervix. As to the kind of experiment: Tensile properties (stress-strain, extensibility) of isolated cervix after intravaginal treatment of pregnant rats. In kind it is in vivo, Sprague-Dawley rats. The following applies: for cervical extensibility: 100 ng/ml gel intravaginally. The method, then:
Control animals received applications of gel only.
The tensile properties of the isolated cervix were evaluated using the Shimadzu EZ-Test instrumentation using a test regimen which mimicked the conditions during labour. Briefly, the cervix was suspended between two hooks by means of threads passed through the cervical canal. It was then placed in a 40 ml tissue bath containing 10 mM HEPES/PBS solution (pH=7.4) maintained at 25° C. […] Each cervix was allowed 30 min. to equilibrate. The lower hook was fixed while the upper hook was movable, to simultaneously record displacement and force with a sample rate of 20 Hz. […] The upper hook was moved until a small resistance of the tissue (20 mN) was recorded after which the tester automatically moved the upper hook to incrementally stretch the cervix in steps of 0.4 mm. at 1 min. intervals. Between subsequent stretches the hook rested for 1 min. allowing the cervix to accommodate. During the accommodation periods the cervix reverted back to a relaxed state, therefore diminishing the opposed resistance and thus the tension recorded by the tester. FIG. 15 illustrates a typical stress-strain plot of a rat cervix. […] At YP permanent morphological changes and breaks in the material begin to occur. Break-point (BP) is the moment where the tissue completely breaks and the load abruptly falls toward zero. To quantify the elastic behaviour of the cervix (cervical resistance), straight lines are fitted through the linear portion of the force versus displacement curve. The slopes of the upper, lower and mid-point regression lines that are related to Young's modulus for elastic materials were used to best characterise the tensile properties of the sample. A larger slope indicates a higher resistance to dilation, therefore lower extensibility.

A further assay deals with pregnant rats. As to the kind of experiment: Preterm delivery induced by progesterone receptor antagonist in pregnant rats. In kind it is in vivo, Sprague-Dawley rats. The following applies: 10 mg s.c. on day 19, in 24 h. The method, then: Treatments (Protocols A and B): Mouse recombinant VEGF164 (the murine equivalent of human VEGF165) was dissolved at a concentration of 10 and 100 ng/ml gel. Control animals received applications of gel only. Some animals were injected on day 19 s.c. with 10 mg progesterone receptor antagonist RU486, a protocol which induces in 24 h preterm delivery in 80% of animals.

`C[C@]12CC[C@@H]3c4ccc(O)cc4CC[C@H]3[C@@H]1CC[C@@H]2O` [17β-estradiol]: the “VEGF mRNA compared to Control” value in the assay on VEGF165 mRNA (17β-estradiol alone, non-pregnant cervical explants) was “up-regulates”. Besides, the “secreted forms of VEGF in the culture medium” value with VEGF protein expression (17β-estradiol, 48 hours, culture medium) is recorded as “up-regulates”. Moreover, the “VEGF protein in the tissue itself” value with VEGF protein expression (17β-estradiol, 48 hours, tissue) was “no effect”.

Regarding VEGF, the “connexin-43 expression in cervical explants” value with Connexin-43 [1] (non-pregnant cervical explants, FIG. 11B) is recorded as “up-regulation”. The “connexin-43 expression in myometrial explants” value in the assay on Connexin-43 [2] is “up-regulation”. In addition, the “slope of stress-strain curve” value with rat cervix (10 ng/ml gel intravaginally, protocol B (day 16 to day 20), significant only when applied later in pregnancy) is “statistically significant decrease”. Moreover, the cervical extensibility entry in the assay with rat cervix (protocol A (day 12 to day 16)) and in the assay with rat cervix (protocol B (day 16 to day 20)) was “significantly increased” in each case.

As for `CC#C[C@]1(O)CC[C@H]2[C@@H]3CCC4=CC(=O)CCC4=C3[C@@H](c3ccc(N(C)C)cc3)C[C@@]21C` [RU486], in the assay on pregnant rats, the preterm delivery is reported as 80 % of animals.

In the case of platelet-activating factor [PAF], in the assay on VEGF protein expression (PAF at various concentrations, 24 hours), the “VEGF expression in non-pregnant cervix” value is “increases”. Further, the “connexin-43 expression in cervix” value in the assay on Connexin-43 [1] (PAF at various concentrations, non-pregnant cervix, FIG. 12) is “up-regulation”.

In the case of `CC(=O)[C@H]1CC[C@H]2[C@@H]3CCC4=CC(=O)CC[C@]4(C)[C@H]3CC[C@]12C` [progesterone], the “VEGF mRNA” value with VEGF165 mRNA (progesterone at 10^−4 M in the presence of 10^−7 M 17β-estradiol) and in the assay with VEGF165 mRNA (progesterone at 10^−4 M) was “down-regulated” each time. The “VEGF protein expression in the culture medium” value in the assay on VEGF protein expression (explants primed with 17β-estradiol for 4 hours, then increasing concentration of progesterone, culture medium) was “dose-dependent increase”. Further, the “VEGF protein expression in the tissue” value with VEGF protein expression (explants primed with 17β-estradiol for 4 hours, then increasing concentration of progesterone, tissue) is “dose-dependent increase”. In the assay with VEGF protein expression (progesterone at 10^−4 M, 48 hours, culture medium), the “VEGF protein in the culture medium compared with Control” value was “down-regulated”. The “VEGF protein in the tissue itself compared with Control” value in the assay on VEGF protein expression (progesterone at 10^−4 M, 48 hours, tissue) was “down-regulated”.

The values are drawn from patent US6946442B2, “Method of hastening cervical ripening” (priority 1994, dated 2005).
